Values quoted from earlier work, collected in patent US12697292B2, “Method for treating human hair with agents containing mixtures of organic C1-C6 alkoxy siloxanes” (Henkel AG & Co. KGaA, priority 2021, dated 2026).

Details: 25° C.

| solubility in water | SMILES | water solubility |
| --- | --- | --- |
|  | CCN(Cc1cccc(S(=O)(=O)[O-])c1)c1ccc(C(=C2C=CC(=[N+](CC)Cc3cccc(S(=O)(=O)[O-])c3)C=C2)c2ccccc2S(=O)(=O)[O-])cc1.[Na+].[Na+] [Acid Blue 9] | more than 20 wt. % |
|  | O=S(=O)([O-])c1ccc(N=Nc2c(O)ccc3ccccc23)cc1.[Na+] [Acid Orange 7, sodium salt of 4-[(2-hydroxy-1-naphthyl)azo] benzene sulphonate] | more than 7 g/L |
|  | Nc1cc(S(=O)(=O)[O-])cc2cc(S(=O)(=O)[O-])c(N=Nc3ccccc3)c(O)c12.[Na+].[Na+] [Acid Red 33, dianhydro salt of 5-amino-4-hydroxy-3-(phenylazo)-naphthalene-2,7-disulfonate] | 2500 µg/mL |
|  | O=C([O-])c1c(Cl)c(Cl)c(Cl)c(Cl)c1-c1c2cc(Br)c(=O)c(Br)c-2oc2c(Br)c([O-])c(Br)cc12.[Na+].[Na+] [Acid Red 92, disodium salt of 3,4,5,6-tetrachloro-2-(1,4,5,8-tetrabromo-6-hydroxy-3-oxanthene-9-yl) benzoic acid] | greater than 10 g/L |
| readily soluble | O=C([O-])C1=NN(c2ccc(S(=O)(=O)[O-])cc2)C(=O)C1N=Nc1ccc(S(=O)(=O)[O-])cc1.[Na+].[Na+].[Na+] (centres unmarked) [Acid Yellow 23, trisodium salt of 4,5-dihydro-5-oxo-1-(4-sulfophenyl)-4-((4-sulfophenyl)azo)-1H-pyrazole-3−carboxylic acid] |  |
